Read-outs that look alike come from different tables or passages of the source. Blank lines part the entries; values can stand above or below the compound they belong to.
Experiments:
[1] = system: LXFA289 (lung adenocarcinoma); experiment: Colony-forming assay; assay type: cell-based, human; details: for IC50: read-out: IC50 colony formation
OVXF1353 (ovarian) = experiment: Colony-forming assay; assay type: cell-based, human
Method: The anti-tumor activity of the compounds was evaluated via a colony-forming-assay as described e.g. by D. P. Berger et al. in Annals of Oncology 1, pages 333-341 (1 990), “The clonongenic assay with human tumor xenografts, evaluation, predictive values and application for drug screening”.
The experiments were conducted using various tumor cell lines, in particular mammary carcinoma (MAXF), lung adenocarcinoma (LXFA), large-cell lung carcinoma (LXFL), small-cell lung carcinoma (LXFS), colon carcinoma (CXF), melanoma (MEXF), pancreatic carcinoma (PAXF), renal carcinoma (RXF), ovarian carcinoma (OVXF) and bladder carcinoma (BXF).

HT29X (colon) = experiment: Colony-forming assay; assay type: cell-based, human; details: for IC50: read-out: IC50 colony formation
[2] = system: large-cell lung carcinoma xenograft line LXFL 529 L; experiment: Tumor cell growth inhibition, sulforhodamine B (SRB) assay; assay type: cell-based, human; details: LXFL529L; three days incubation, serum containing medium
[3] = system: mammary carcinoma line MCF-7; experiment: as above; assay type: cell-based, human; details: MCF7; three days incubation, serum containing medium
Solubility = assay type: physicochemical
LXFL 529L cells = experiment: Cellular uptake into LXFL 529L cells; details: for distribution cellular organelles / distribution cytosol: 2 hours incubation
Method: The compounds of Examples 1, 6 and 8 and Comparative Examples 1 and 2 were investigated with respect to their ability to penetrate LXFL 529L cells having the passage numbers P23 to P39. The amounts of the substances taken up by the cells are given depending on the concentration of the substance within the incubation medium. The time of incubation was 2 hours in all of the experiments. Furthermore, the distribution of the substance which was taken up by the cells in the cytosol and the cellular organelles (particular) was estimated and is given in the intermediate column of Table 2. Tumor cell growth inhibition was determined by the sulfo-rhodamine B assay (SRB assay) according to Skehan et al., J. Natl. Cancer Institute 82, pages 1107-1112 (1990). Incubation was conducted for three days in serum containing medium. Tumor cell lines tested were a large-cell lung carcinoma xenograft line LXFL 529 L and the mammary carcinoma line MCF-7.

MCF7X (mammary) = experiment: Colony-forming assay; assay type: cell-based, human; details: for IC50: read-out: IC50 colony formation
[4] = system: LXFA526 (lung adenocarcinoma); experiment: Colony-forming assay; assay type: cell-based, human; details: for IC50: read-out: IC50 colony formation
PAXF546 (pancreatic) = experiment: Colony-forming assay; assay type: cell-based, human; details: for IC50: read-out: IC50 colony formation
[5] = system: LXFS650 (lung small-cell); experiment: Colony-forming assay; assay type: cell-based, human; details: for IC50: read-out: IC50 colony formation
MEXF514 (melanoma) = experiment: Colony-forming assay; assay type: cell-based, human
MX1 (mammary) = experiment: Colony-forming assay; assay type: cell-based, human; details: for IC50: read-out: IC50 colony formation
CXF280 (colon) = experiment: Colony-forming assay; assay type: cell-based, human; details: for IC50: read-out: IC50 colony formation
MEXF989 (melanoma) = experiment: Colony-forming assay; assay type: cell-based, human
[6] = system: human tumor xenograft LXFL 529; experiment: In vivo testing in nude mice bearing subcutaneous tumor xenograft
Method: Compound of Examples 1, 4, 6, 8, 9 and 10 were subjected to in vivo testing in nude mice bearing subcutaneously growing human tumor xenograft LXFL 529. The indigoid bisindole derivatives were applied intraperitoneally to the animals in doses and according to the schedule as described in Table 4.
The experiments were run for 21 or 28 days. Anti-tumor activity was evaluated comparing the median tumor volume relative to control, expressed as %T/C, wherein T is the test group and C the vehicle control group. In Table 4, anti-tumor activity is given according to an activity rate scale.

BXF1301 (bladder) = experiment: Colony-forming assay; assay type: cell-based, human; details: for IC50: read-out: IC50 colony formation
MEXF515LX (melanoma) = experiment: Colony-forming assay; assay type: cell-based, human
OVXF1355 (ovarian) = experiment: Colony-forming assay; assay type: cell-based, human
[7] = system: LXFL529 (lung large-cell); experiment: Colony-forming assay; assay type: cell-based, human
PAXF736 (pancreatic) = experiment: Colony-forming assay; assay type: cell-based, human
[8] = Homo sapiens, read-out: IC50 colony formation
[9] = read-out: IC50 colony formation
[10] = type printed pancreatic, xenograft printed HT29X
[11] = concentration of incubation 10 μM
[12] = concentration of incubation 20 μM

IC50 ([1]; Homo sapiens): 3.5 µM
IC50 (OVXF1353 (ovarian); [8]): 3.9 µM
IC50 (HT29X (colon); Homo sapiens, colon HT29X): 3.3 µM
Compound: O=C1/C(=C2\Nc3ccccc3C2=O)Nc2ccccc21 [Example 11, Indigo]
IC70 colony formation [1]: 12.3 µM
IC70 colony formation (OVXF1353 (ovarian)): 16.7 µM
IC70 colony formation (HT29X (colon); colon HT29X): 26.1 µM

IC50 [2]: > 100 µM
IC50 [3]: > 100 µM
solubility in physiological solutions (in words) (Solubility): well soluble in physiological solutions
uptake by the tumor cells (in words) (LXFL 529L cells; LXFL 529L cells): essentially not taken up by the cells
Compound: O=C1Nc2ccc(S(=O)(=O)O)cc2C1=C1Nc2ccccc2C1=NO [Comparative Example 2, Indirubin-3′-oxime-5-sulfonic acid, reference compound]

Compound: O=C1Nc2ccc(I)cc2/C1=C1/Nc2ccccc2C1=O [Example 2, 5-Iodoindirubin]
IC70 colony formation (MCF7X (mammary)): 2.5 µM
IC50 (MCF7X (mammary)): < 1 µM
IC70 colony formation [4]: 23 µM
IC50 [4]: 8 µM
IC70 colony formation (PAXF546 (pancreatic)): >30 µM
IC50 (PAXF546 (pancreatic)): 18 µM
IC70 colony formation [5]: 24.5 µM
IC50 [5]: 13.7 µM
IC70 colony formation (HT29X (colon); colon HT29X): >30 µM
IC50 (HT29X (colon); colon HT29X): 6.3 µM

IC50 (MCF7X (mammary)): < 1 µM
IC50 [4]: 2.3 µM
IC50 (MEXF514 (melanoma); [9]): 3.4 µM
IC50 (HT29X (colon); colon HT29X): < 1 µM
IC50 (HT29X (colon); [10]): 13.2 µM
Compound: O=C1Nc2ccc(Br)cc2/C1=C1/Nc2ccccc2C1=O [Example 3, 5-Bromoindirubin]
IC70 colony formation (MCF7X (mammary)): <1.0 µM
IC70 colony formation [4]: 14.4 µM
IC70 colony formation (MEXF514 (melanoma)): 8.0 µM
IC70 colony formation (HT29X (colon); colon HT29X): 17.3 µM
IC70 colony formation (HT29X (colon); [10]): >30 µM

IC50 (MX1 (mammary)): 7.7 µM
IC50 [2]: 3 ± 0.5 µM
IC50 [3]: 3.3 ± 0.4 µM
IC50 (CXF280 (colon)): 8 µM
IC50 (MEXF989 (melanoma); [9]): 1 µM
IC50 [1]: 0.9 µM
IC50 (BXF1301 (bladder)): 10.6 µM
ability to penetrate the cellular membrane / uptake compared to indirubin (Example 1) (in words) (LXFL 529L cells; LXFL 529L cells): slightly improved
uptake by the tumor cells (in words) (LXFL 529L cells; LXFL 529L cells): taken up by the tumor cells
distribution cellular organelles (LXFL 529L cells; [11]): 57 ± 14.1%
distribution cytosol (LXFL 529L cells; [11]): 43 ± 14.1%
distribution cellular organelles (LXFL 529L cells; [12]): 56 ± 15.6%
distribution cytosol (LXFL 529L cells; [12]): 44 ± 15.6%
IC50 (MEXF515LX (melanoma); [9]): 2.8 µM
Compound: O=C1Nc2ccccc2/C1=C1/Nc2ccccc2/C1=N\O [Example 8, Indirubin-3′-oxime]
IC70 colony formation (MX1 (mammary)): 9.2 µM
IC70 colony formation (CXF280 (colon)): 12.6 µM
IC70 colony formation (MEXF989 (melanoma)): 2.6 µM
IC70 colony formation [1]: 3.4 µM
activity rating ([6]; 100 mg/kg/day i.p., days 1, 4, 8, 11, 15, 18, 22): − (inactive T/C > 50%)
activity rating ([6]; 300 mg/kg/day i.p., days 1, 4, 8, 11, 15, 18, 22): − (inactive T/C > 50%)
IC70 colony formation (BXF1301 (bladder)): 16.1 µM
IC70 colony formation (MEXF515LX (melanoma)): 5.7 µM

IC50 (MCF7X (mammary); Homo sapiens): < 1 µM
IC50 (MX1 (mammary); Homo sapiens): < 1 µM
IC50 (CXF280 (colon); Homo sapiens): < 1 µM
IC50 (MEXF989 (melanoma); Homo sapiens, MEXF 989, read-out: IC50 colony formation): < 1 µM
IC50 (OVXF1355 (ovarian); [8]): < 1 µM
IC50 ([7]; Homo sapiens, LXFL 529, read-out: IC50 colony formation): 2.6 µM
IC50 (BXF1301 (bladder); Homo sapiens): 6 µM
IC50 (PAXF546 (pancreatic); Homo sapiens): < 1 µM
IC50 ([5]; Homo sapiens): < 1 µM
IC50 (HT29X (colon); Homo sapiens, colon HT29X): < 1 µM
IC50 (PAXF736 (pancreatic); [8]): < 1 µM
Compound: O=C1Nc2ccccc2/C1=C1\C(=O)Nc2ccccc21 [Example 10, Isoindigo]
IC70 colony formation (MCF7X (mammary)): <1.0 µM
IC70 colony formation (MX1 (mammary)): <1.0 µM
IC70 colony formation (CXF280 (colon)): <1.0 µM
IC70 colony formation (MEXF989 (melanoma)): <1.0 µM
IC70 colony formation (OVXF1355 (ovarian)): <1.0 µM
activity rating ([6]; 30 mg/kg/day i.p., days 1-5): − (inactive T/C > 50%)
activity rating ([6]; 100 mg/kg/day i.p., days 1-5): − (inactive T/C > 50%)
activity rating ([6]; 300 mg/kg/day i.p., days 1-5): + (tumor inhibition T/C > 25-50%)
IC70 colony formation [7]: 4.5 µM
IC70 colony formation (BXF1301 (bladder)): 8.2 µM
IC70 colony formation (PAXF546 (pancreatic)): <1.0 µM
IC70 colony formation [5]: <1.0 µM
IC70 colony formation (HT29X (colon); colon HT29X): <1.0 µM
IC70 colony formation (PAXF736 (pancreatic)): <1.0 µM

From patent US6664285B1, “Use of cell membrane penetrating indigoid bisindole derivatives” (priority 1999, dated 2003)
